Test results taken from patent publication US9617256B2 (priority 2007, dated 2017).
Values after ≈ are worked out from the molar mass of the structure shown. Read-outs that look alike come from different tables or passages of the source.

Key:
[1] = system: APAE006 in the presence of 8 micrograms per milliliter of polymyxin B nonapeptide; format: cell-based, P. aeruginosa; settings: APAE006 with 8 micrograms per milliliter polymyxin B nonapeptide
How it was run: (§1)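 MICs come from broth microdilution in cation-adjusted Mueller-Hinton broth, final inoculum 3×10^5–7×10^5 CFU/mL, 18-24 hours at 35° C. Levofloxacin and QC strains served as assay controls.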

APAE001 (ATCC27853) = test: MIC broth microdilution, APAE001; format: cell-based, P. aeruginosa; settings: Pseudomonas aeruginosa, ATCC27853, read-out: MIC APAE001, APAE001 (ATCC27853)
How it was run: (§2)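 Minimum inhibitory concentrations followed CLSI broth microdilution guidelines: cation-adjusted Mueller-Hinton broth, 2-fold serial drug dilutions, final inoculum 3×10^5–7×10^5 CFU/mL, ambient air at 35° C. for 18-24 hours. Quality-control strains and levofloxacin monitored performance.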

[2] = system: AABA1060 (clinical isolate of Acinetobacter baumannii); test: MIC broth microdilution, AABA1060; format: cell-based; settings: Acinetobacter baumannii, read-out: MIC AABA1060
How it was run: as §2

[3] = system: AECO063 (ATCC25922 bearing an acrAB mutation); test: microbe, parasite or virus in culture; format: cell-based, E. coli; settings: Escherichia coli, ATCC25922, read-out: MIC AECO063
How it was run: as §2

AECO001 (ATCC25922) = test: MIC broth microdilution, AECO001; format: cell-based, E. coli; settings: for MIC: Escherichia coli; for Ratio of MICs on AECO001 [Cpd (A = —CHCH3NH2)/Cpd (A = —C(CH3)2NH2)]: MIC of paired compound with A = —CHCH3NH2 divided by MIC of compound with A = —C(CH3)2NH2, n=2 data, pairs identical except for the A moiety
How it was run: as §2

[4] = system: APAE006 (strain of P. aeruginosa in which all efflux pumps are inactivated); test: microbe, parasite or virus in culture; format: cell-based; settings: Pseudomonas aeruginosa, read-out: MIC APAE006, APAE006, all efflux pumps inactivated
How it was run: as §1

[5] = system: ASAU001 (laboratory strain of S. aureus, ATCC29213); test: MIC broth microdilution, ASAU001; format: cell-based; settings: Staphylococcus aureus, ATCC29213, read-out: MIC ASAU001
How it was run: as §2

[6] = ATCC25922, read-out: MIC AECO001
[7] = ATCC25922, read-out: MIC AECO001 HSA AGP

Row | SMILES | MIC APAE006 + PMBN [1] | MIC (APAE001 (ATCC27853)) [µg/mL] | MIC [2] [µg/mL] | MIC [3] [µg/mL] | MIC (AECO001 (ATCC25922); [6]) [µg/mL] | MIC (AECO001 (ATCC25922); [7]) [µg/mL] | MIC [4] [µg/mL] | MIC [5] [µg/mL] | Ratio of MICs on AECO001 [Cpd (A = —CHCH3NH2)/Cpd (A = —C(CH3)2NH2)] (AECO001 (ATCC25922))
1 | C[C@@H](O)[C@H](NC(=O)c1ccc(C#CC#CC2CC2)cc1)C(=O)NO [Example 91-5] | A (MIC's of 2.0 μg/mL or less = A) | < 2 | 2 to 16 (≈ 6.13 to 49 µM) | < 2 | < 2 | < 2 | < 2 | 16 to 64 (≈ 49 to 196 µM) | 
2 | CC(C)(N)[C@H](NC(=O)c1ccc(C#C/C=C/c2ccc(CNC3CC3)cc2)cc1)C(=O)NO [Example 102-6] | A (MIC's of 2.0 μg/mL or less = A) | < 2 | 2 to 16 (≈ 4.48 to 35.8 µM) | < 2 | < 2 | 2 to 16 (≈ 4.48 to 35.8 µM) | < 2 | 16 to 64 (≈ 35.8 to 143 µM) | 
3 | C[C@@H](O)[C@H](NC(=O)c1ccc(C#CC#Cc2cccc(F)c2)cc1)C(=O)NO [Example 82-18] | A (MIC's of 2.0 μg/mL or less = A) | 2 to 16 (≈ 5.26 to 42.1 µM) | 16 to 64 (≈ 42.1 to 168 µM) | < 2 | < 2 | 2 to 16 (≈ 5.26 to 42.1 µM) | < 2 | 16 to 64 (≈ 42.1 to 168 µM) | 
4 | CCOCc1ccc(C#CC#Cc2ccc(C(=O)N[C@H](C(=O)NO)[C@@H](C)O)cc2)cc1 [Example 82-20] | A (MIC's of 2.0 μg/mL or less = A) | 2 to 16 (≈ 4.76 to 38.1 µM) | 2 to 16 (≈ 4.76 to 38.1 µM) | < 2 | < 2 | 2 to 16 (≈ 4.76 to 38.1 µM) | < 2 | 16 to 64 (≈ 38.1 to 152 µM) | 
5 | C[C@@H](O)[C@H](NC(=O)c1ccc(C#Cc2ccc(CNCC(F)F)cc2)cc1)C(=O)NO [Example 119-4] | A (MIC's of 2.0 μg/mL or less = A) | < 2 | 2 to 16 (≈ 4.64 to 37.1 µM) | < 2 | < 2 | < 2 | < 2 | 16 to 64 (≈ 37.1 to 148 µM) | 
6 | C[C@@H](O)[C@H](NC(=O)c1ccc(C#CC#Cc2ccc(F)cc2)cc1)C(=O)NO [Example 82-23] | A (MIC's of 2.0 μg/mL or less = A) | 16 to 64 (≈ 42.1 to 168 µM) | 16 to 64 (≈ 42.1 to 168 µM) | < 2 | < 2 | 16 to 64 (≈ 42.1 to 168 µM) | < 2 | 16 to 64 (≈ 42.1 to 168 µM) | 
7 | C[C@@H](N)[C@H](NC(=O)c1ccc(C#CC2CC2c2ccccc2)cc1)C(=O)NO (stereo partly drawn) [Example 134-2] | A (MIC's of 2.0 μg/mL or less = A) | 2 to 16 (≈ 5.3 to 42.4 µM) | 2 to 16 (≈ 5.3 to 42.4 µM) | 2 to 16 (≈ 5.3 to 42.4 µM) | 2 to 16 (≈ 5.3 to 42.4 µM) | 16 to 64 (≈ 42.4 to 170 µM) | < 2 | 16 to 64 (≈ 42.4 to 170 µM) | 
8 | CC(C)(N)[C@H](NC(=O)c1ccc(C#CC#CC2CCCC2)cc1)C(=O)NO [Example 91-14] | A (MIC's of 2.0 μg/mL or less = A) | < 2 | < 2 | < 2 | < 2 | 2 to 16 (≈ 5.44 to 43.5 µM) | < 2 | 2 to 16 (≈ 5.44 to 43.5 µM) | 3.3
9 | CC(C)(N)[C@H](NC(=O)c1ccc(C#Cc2ccc(CNC3CC3)cc2)cc1)C(=O)NO [Example 121-1, N—((S)-2-Amino-1-hydroxycarbamoyl-2-methyl-propyl)-4-(4-cyclopropylaminomethyl-phenylethynyl)-benzamide] | A (MIC's of 2.0 μg/mL or less = A) | < 2 | 2 to 16 (≈ 4.76 to 38 µM) | < 2 | < 2 | < 2 | < 2 | 16 to 64 (≈ 38 to 152 µM) | 4.0
10 | C[C@@H](O)[C@H](NC(=O)c1ccc(/C=C/C#Cc2ccccc2F)cc1)C(=O)NO [Example 114-12] | A (MIC's of 2.0 μg/mL or less = A) | 2 to 16 (≈ 5.23 to 41.8 µM) | < 2 | < 2 | < 2 | 2 to 16 (≈ 5.23 to 41.8 µM) | < 2 | 16 to 64 (≈ 41.8 to 167 µM) | 
11 | CC(C)(N)[C@H](NC(=O)c1ccc(C#Cc2ccc(CNCCF)cc2)cc1)C(=O)NO [Example 122-6] | A (MIC's of 2.0 μg/mL or less = A) | < 2 | 2 to 16 (≈ 4.69 to 37.5 µM) | < 2 | < 2 | < 2 | < 2 | 16 to 64 (≈ 37.5 to 150 µM) | 2.1
12 | CC(C)(N)[C@H](NC(=O)c1ccc(C#CC#Cc2cccnc2)cc1)C(=O)NO [Example 88-8] | A (MIC's of 2.0 μg/mL or less = A) | < 2 | 2 to 16 (≈ 5.31 to 42.5 µM) | < 2 | < 2 | < 2 | < 2 | 16 to 64 (≈ 42.5 to 170 µM) | 5.1
13 | CC(C)(N)[C@H](NC(=O)c1ccc(/C=C/C#Cc2ccccc2)cc1)C(=O)NO [Example 114-16] | A (MIC's of 2.0 μg/mL or less = A) | 2 to 16 (≈ 5.3 to 42.4 µM) | < 2 | < 2 | < 2 | < 2 | < 2 | 16 to 64 (≈ 42.4 to 170 µM) | 
14 | NC[C@H](NC(=O)C#Cc1ccc(C#CCN2CCOCC2)cc1)C(=O)NO [Example 137-10] | C (MIC's of greater than 16.0 μg/mL to 64.0 μg/mL = C) | > 64 | > 64 | > 64 | > 64 | > 64 | 16 to 64 (≈ 43.2 to 173 µM) | > 64 | 
15 | C[C@@H](N)[C@H](NC(=O)c1ccc(C#CC(O)c2ccc(CN3CCOCC3)cc2)cc1)C(=O)NO (stereo partly drawn) [Example 137-17] | A (MIC's of 2.0 μg/mL or less = A) | 16 to 64 (≈ 34.3 to 137 µM) | 16 to 64 (≈ 34.3 to 137 µM) | 16 to 64 (≈ 34.3 to 137 µM) | 16 to 64 (≈ 34.3 to 137 µM) | 16 to 64 (≈ 34.3 to 137 µM) | 2 to 16 (≈ 4.29 to 34.3 µM) | 16 to 64 (≈ 34.3 to 137 µM) | 
16 | CC(C)(O)[C@H](NC(=O)c1ccc(C#C/C=C/C2CC2)cc1)C(=O)NO [Example 107-1, 4-((E)-4-Cyclopropyl-but-3-en-1-ynyl)-N—((S)-2-hydroxy-1-hydroxycarbamoyl-2-methyl-propyl)-benzamide] | A (MIC's of 2.0 μg/mL or less = A) | < 2 | 2 to 16 (≈ 5.84 to 46.7 µM) | < 2 | < 2 | 2 to 16 (≈ 5.84 to 46.7 µM) | < 2 | 16 to 64 (≈ 46.7 to 187 µM) | 
17 | CC(C)(O)[C@H](NC(=O)c1ccc(C#CC#Cc2cncnc2)cc1)C(=O)NO [Example 89-7] | A (MIC's of 2.0 μg/mL or less = A) | 2 to 16 (≈ 5.29 to 42.3 µM) | 16 to 64 (≈ 42.3 to 169 µM) | < 2 | 2 to 16 (≈ 5.29 to 42.3 µM) | 2 to 16 (≈ 5.29 to 42.3 µM) | < 2 | 16 to 64 (≈ 42.3 to 169 µM) | 
18 | CC(C)(N)[C@H](NC(=O)c1ccc(C#CC#Cc2ccc(N)cc2)cc1)C(=O)NO [Example 82-25] | A (MIC's of 2.0 μg/mL or less = A) | < 2 | < 2 | < 2 | < 2 | < 2 | < 2 | 16 to 64 (≈ 41 to 164 µM) | 1.6
19 | C[C@@H](N)[C@H](NC(=O)c1ccc(C#CC#CC(C)(C)O)cc1)C(=O)NO [Example 91-30] | A (MIC's of 2.0 μg/mL or less = A) | < 2 | 16 to 64 (≈ 46.6 to 186 µM) | 2 to 16 (≈ 5.82 to 46.6 µM) | 16 to 64 (≈ 46.6 to 186 µM) | 16 to 64 (≈ 46.6 to 186 µM) | < 2 | 16 to 64 (≈ 46.6 to 186 µM) | 
20 | CC(C)(N)[C@@H](NC(=O)c1ccc(C#Cc2ccc(CNC3CC3)cc2)cc1)C(=O)NO [Compound 121-2] | A (MIC's of 2.0 μg/mL or less = A) | 16 to 64 (≈ 38 to 152 µM) | 16 to 64 (≈ 38 to 152 µM) | 2 to 16 (≈ 4.76 to 38 µM) | 2 to 16 (≈ 4.76 to 38 µM) | 16 to 64 (≈ 38 to 152 µM) | < 2 | 16 to 64 (≈ 38 to 152 µM) | 
